This note sets out measurements from patent publication US20030199590A1, “Prostaglandin analogues for promotion of hair growth” (priority 2002, published 2003).

A value given as a limit tells only on which side of the number the result lay.

In test [1] the target is T1, FP receptors (Swiss 3T3 cells expressing FP receptors) (Mus musculus, UniProt P43117).
T1 construct: endogenous in cells; host or cells: Swiss 3T3 cells
The test can be described thus: FP receptor-mediated phosphoinositide turnover assay. The format is cell-based. Conditions: Table 1; for Emax: Swiss-3T3, 1 h, efficacy relative to standard full agonist (100%), read-out: FP functional (%) agonistic activity; for EC50: [3H]-IPs in Swiss 3T3 cells, read-out: FP functional EC50. The protocol:
FP receptor-mediated phosphoinositide turnover assay: [^3H]Inositol phosphates ([^3H]-IPs) produced by agonist-mediated activation of phospholipase C in Swiss 3T3 cells expressing FP receptors were quantified as follows. Confluent 3T3 cells were exposed to 1.0-1.5 μCi [^3H]-myo-inositol (18.3 Ci/mmol) in 0.5 ml DMEM for 24-30 hours at 37° C. Then cells were rinsed once with DMEM/F-12 containing 10 mM LiCl, and the agonist stimulation experiment was performed in 0.5 ml of the same medium to facilitate accumulation of [^3H]-IPs. Cells were exposed to the agonist or solvent for 60 min at 37° C. (triplicate determinations), followed by aspiration of the medium and immediate addition of 1 ml of ice-cold 0.1 M formic acid. The plates were kept cold and then frozen. Samples frozen up to one week were thawed prior to chromatographic separation of radiolabeled components. The cell lysates (0.9 ml) were loaded on columns packed with approximately 1 ml AG 1-X8 anion exchange resin. The elution procedure consisted of a wash with 10 ml of H2O, then 8 ml of 50 mM ammonium formate, and finally 4 ml of 1.2 M ammonium formate with 0.1 M formic acid, which was collected in a scintillation vial. To this eluate was added 15 ml of scintillation fluid and the total [^3H]-IPs determined by scintillation counting on a beta-counter. Data were analyzed by the sigmoidal fit function of the Origin Scientific Graphics software (Microcal Software, Northampton, Mass.) to determine agonist potency (EC50 value) and efficacy, relative to the standard cloprostenol.

The target of test [2] is T2, FP receptors (Bos taurus, UniProt P37289).
T2 construct: Washed total particulate bovine corpus luteum membranes; from tissue; host or cells: bovine corpus luteum membranes
The test can be described thus: FP receptor binding assay ([3H]PGF2α, bovine corpus luteum membranes). Conditions: Table 1; [3H]PGF2α, bovine corpus luteum membranes; free acid form. As for the experimental part:
Non-specific binding was defined with 1-10 μM unlabeled PGF2α or fluprostenol. The assays were terminated by vacuum filtration (using Whatman GF/B glass fiber filter previously soaked in 0.3% polyethyleneimine) and the data analyzed by a non-linear, iterative, curve-fitting computer program.

Usually EC50 stands for the concentration at which the effect is half-maximal. As a reminder, the IC50 is the concentration at which inhibition is half-maximal. A lower IC50 goes with inhibition by little substance.

T2 sequence (P37289 whole entry): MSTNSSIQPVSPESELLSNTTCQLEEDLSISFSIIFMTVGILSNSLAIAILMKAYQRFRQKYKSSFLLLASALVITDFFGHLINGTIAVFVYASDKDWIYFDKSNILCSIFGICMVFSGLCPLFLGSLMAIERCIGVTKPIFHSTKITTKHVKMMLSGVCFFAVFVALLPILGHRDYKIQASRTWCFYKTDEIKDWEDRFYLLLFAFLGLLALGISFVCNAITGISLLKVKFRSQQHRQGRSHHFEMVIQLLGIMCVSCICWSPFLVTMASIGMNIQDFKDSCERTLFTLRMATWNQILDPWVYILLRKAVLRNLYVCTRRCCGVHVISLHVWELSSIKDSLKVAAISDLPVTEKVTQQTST
T1 sequence (P43117 whole entry): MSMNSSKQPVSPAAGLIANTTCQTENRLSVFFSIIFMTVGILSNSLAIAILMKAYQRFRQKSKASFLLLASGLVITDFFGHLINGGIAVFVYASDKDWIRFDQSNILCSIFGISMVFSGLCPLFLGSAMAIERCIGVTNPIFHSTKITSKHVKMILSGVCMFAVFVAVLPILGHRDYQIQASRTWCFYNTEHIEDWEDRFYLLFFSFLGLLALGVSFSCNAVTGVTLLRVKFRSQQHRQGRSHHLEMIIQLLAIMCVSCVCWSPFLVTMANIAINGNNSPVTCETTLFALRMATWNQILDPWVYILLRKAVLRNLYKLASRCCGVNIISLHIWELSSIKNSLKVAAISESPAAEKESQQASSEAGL

As for `O=C(O)CCC/C=C\C[C@H]1CC[C@@H](O)[C@@H]1/C=C/[C@@H](O)CCc1ccccc1` [Compound 1], in test [1], the Emax was found to be 87.6% and the 50% effective concentration (EC50) came out at 19.6 nM. For the same compound, the IC50 in test [2] was 96 nM.

`O=C(O)CCC/C=C\C[C@H]1CC[C@@H](O)[C@@H]1CC[C@@H](O)CCc1ccccc1` [Compound 2]: in test [1], the Emax was 60% and the EC50 came to 76.6 nM. For the same compound, the IC50 in test [2] was determined as 310 nM.

Turning to `O=C(O)CCC/C=C\C[C@H]1CC[C@@H](O)[C@@H]1/C=C/[C@@H](O)COc1cccc(Cl)c1` [Compound 6], in test [1], the Emax was 100% and the EC50 was 2.6 nM. For the same compound, the half-maximal inhibitory concentration (IC50) in test [2] was found to be 10 nM.

As for `O=C(O)CCC/C=C\C[C@H]1CC[C@@H](O)[C@@H]1CC[C@@H](O)CCc1cccc(Cl)c1` [Compound 8], in test [1], the Emax worked out at 84% and the EC50 amounted to 6.6 nM. The same compound displayed an IC50 in test [2] of 47 nM.

`O=C(O)CCC/C=C\C[C@H]1CC[C@@H](O)[C@@H]1CC[C@@H](O)C1Cc2ccccc2C1` [Compound 11]: in test [1], the Emax was 60% and the EC50 amounted to 108 nM. For the same compound, in test [2], the concentration for half-maximal inhibition (IC50) came out at 1900 nM.

As for `O=C(O)CCC/C=C\C[C@H]1[C@@H](O)CO[C@@H]1/C=C/[C@H](O)COc1cccc(Cl)c1` [Compound 14], in test [1], the Emax came out at 67% and the EC50 was 194 nM. In test [2], the IC50 was found to be 7300 nM.

For the compound `O=C(O)CCC/C=C\C[C@H]1[C@@H](O)CO[C@@H]1/C=C/[C@@H](O)COc1cccc(Cl)c1` [Compound 15], in test [1], the Emax is 88% and the EC50 was 58 nM. The IC50 in test [2] was 890 nM.

In the case of `O=C(O)CCC/C=C\C[C@@H]1[C@@H](CC[C@@H](F)COc2cccc(Cl)c2)[C@H](O)C[C@@H]1O` [Compound 17], in test [1], the Emax was 64% and the EC50 came to 9 nM. The compound also registered an IC50 in test [2] of 26 nM.

Regarding `O=C(O)CCCCCC[C@H]1C(=O)CO[C@@H]1/C=C/[C@@H](O)COc1ccccc1` [Compound 20], in test [1], the Emax came to 67%. The IC50 in test [2] was found to be 9700 nM.

With `O=C(O)CCCCCC[C@H]1C(=O)CO[C@@H]1/C=C/[C@H](O)COc1ccccc1` [Compound 21], in test [1], the 50% effective concentration (EC50) was over 10000 nM. Further, the IC50 in test [2] was 78000 nM.

For `O=C(O)CCC/C=C\C[C@@H]1[C@@H](CC[C@@H](F)COc2cccc(C(F)(F)F)c2)[C@H](O)C[C@@H]1O` [Compound 24], in test [1], the Emax turned out to be 85% and the EC50 was 12.5 nM. Also, the IC50 in test [2] worked out at 230 nM.

On to `O=C(O)CCC/C=C\C[C@H]1[C@@H](O)CO[C@@H]1/C=C/[C@@H](O)COc1cccc(C(F)(F)F)c1` [Compound 26], for which, in test [1], the Emax worked out at 74% and the concentration giving a half-maximal response (EC50) amounted to 187 nM. The compound further returned a concentration for half-maximal inhibition (IC50) in test [2] of 1800 nM.

For `O=C(O)CCC/C=C\C[C@H]1[C@@H](O)CO[C@@H]1/C=C/[C@H](O)COc1cccc(C(F)(F)F)c1` [Compound 27], in test [1], the Emax stood at 43% and the EC50 was found to be 889 nM. The compound also yielded an IC50 in test [2] of 15000 nM.

`O=C(O)CCC/C=C\C[C@H]1[C@@H](O)CO[C@@H]1/C=C/[C@@H](O)CCc1ccccc1` [Compound 28]: in test [1], the Emax worked out at 100% and the EC50 came to 80 nM. Also, the IC50 in test [2] turned out to be 1900 nM.

`O=C(O)CCC/C=C\C[C@H]1[C@@H](O)CO[C@@H]1/C=C/[C@H](O)COc1ccccc1` [Compound 32]: in test [1], the Emax was 100% and the EC50 came out at 48.6 nM. This compound also came in with an IC50 in test [2] of 573 nM.

For the compound `O=C(O)CCC/C=C\C[C@H]1[C@@H](O)CO[C@@H]1/C=C/[C@@H](O)COc1ccccc1` [Compound 33], in test [1], the Emax came to 67% and the EC50 was determined as 293 nM. The same compound had a half-maximal inhibitory concentration (IC50) in test [2] of 640 nM.

Take `O=C(O)CCC/C=C\C[C@H]1[C@@H](O)CO[C@@H]1/C=C/[C@H](O)COc1ccc(F)cc1` [Compound 36]: in test [1], the Emax was determined as 75% and the concentration giving a half-maximal response (EC50) is 1240 nM. This compound came in with an IC50 in test [2] of 4600 nM.

Consider `O=C(O)CCC/C=C\C[C@H]1[C@@H](O)CO[C@@H]1/C=C/[C@@H](O)COc1ccc(F)cc1` [Compound 37], for which, in test [1], the Emax turned out to be 78% and the concentration for a half-maximal effect (EC50) was found to be 437 nM. The IC50 in test [2] stood at 1400 nM.

Consider `O=C(O)CCC/C=C\C[C@@H]1C(C#C[C@H](O)COc2cccc(Cl)c2)OC[C@@H]1O` (stereo partly drawn) [Compound 38], for which the half-maximal effective concentration (EC50) in test [1] is over 10000 nM. The half-inhibitory concentration (IC50) in test [2] was found to be 36000 nM.

With `O=C(O)CCC/C=C\C[C@@H]1C(C#C[C@@H](O)COc2cccc(Cl)c2)OC[C@@H]1O` (stereo partly drawn) [Compound 39], in test [1], the Emax turned out to be 100% and the half-maximal effective concentration (EC50) is 509 nM. For the same compound, in test [2], the IC50 is 5100 nM.

With `O=C(O)CC/C=C\CC[C@H]1[C@@H](O)CO[C@@H]1/C=C/[C@@H](O)COc1cccc(Cl)c1` [Compound 40], in test [1], the Emax was 82% and the EC50 was determined as 23 nM. This compound also gave an IC50 in test [2] of 430 nM.

`O=C(O)CCC/C=C\C[C@@H]1[C@@H](CC[C@@H](F)COc2ccccc2)[C@H](O)C[C@@H]1O` [Compound 45]: in test [1], the Emax was 79% and the EC50 stood at 9.5 nM. Moreover, the IC50 in test [2] turned out to be 52 nM.

Regarding `O=C(O)CC/C=C\CC[C@H]1[C@@H](O)CO[C@@H]1/C=C/[C@H](O)COc1ccccc1` [Compound 50], in test [1], the Emax worked out at 59% and the concentration for a half-maximal effect (EC50) came to 252 nM. Further, the IC50 in test [2] came out at 5100 nM.

Take `O=C(O)CC/C=C\CC[C@H]1[C@@H](O)CO[C@@H]1/C=C/[C@H](O)COc1cccc(C(F)(F)F)c1` [Compound 51]: in test [1], the Emax stood at 61% and the EC50 is 781 nM. Also, the IC50 in test [2] was found to be 9900 nM.

With `O=C(O)CC/C=C\CC[C@H]1[C@@H](O)CO[C@@H]1/C=C/[C@@H](O)COc1ccccc1` [Compound 52], in test [1], the Emax worked out at 83% and the EC50 is 57 nM. Also, the IC50 in test [2] came to 330 nM.

As to `O=C(O)CC/C=C\CC[C@H]1[C@@H](O)CO[C@@H]1/C=C/[C@@H](O)COc1cccc(C(F)(F)F)c1` [Compound 53], in test [1], the Emax turned out to be 92% and the concentration for a half-maximal effect (EC50) amounted to 96 nM. This compound registered a 50% inhibitory concentration (IC50) in test [2] of 350 nM.

Consider `O=C(O)CC/C=C\CC[C@H]1[C@@H](O)CO[C@@H]1/C=C/[C@H](O)COc1cccc(Cl)c1` [Compound 54], for which, in test [1], the Emax was found to be 71% and the concentration for a half-maximal effect (EC50) amounted to 249 nM. The IC50 in test [2] was found to be 818 nM.

As to `O=C(O)CCC/C=C\C[C@@H]1[C@@H](/C=C/[C@@H](F)COc2ccccc2)[C@H](O)C[C@@H]1O` [Compound 57], in test [1], the Emax amounted to 104% and the concentration giving a half-maximal response (EC50) was determined as 3.8 nM. This compound had an IC50 in test [2] of 267 nM.

Regarding `O=C(O)CCC/C=C\C[C@@H]1[C@@H](/C=C/[C@H](F)COc2ccccc2)[C@H](O)C[C@@H]1O` [Compound 60], in test [1], the Emax stood at 98% and the half-maximal effective concentration (EC50) was determined as 96 nM. In addition, the half-maximal inhibitory concentration (IC50) in test [2] is 1120 nM.

Take `O=C(O)CCC/C=C\C[C@@H]1[C@@H](/C=C/[C@H](F)COc2cccc(Cl)c2)[C@H](O)C[C@@H]1O` [Compound 62]: in test [1], the Emax was found to be 76% and the EC50 worked out at 81 nM. The same compound gave a concentration for half-maximal inhibition (IC50) in test [2] of 182 nM.

Take `O=C(O)CCC/C=C\C[C@@H]1[C@@H](/C=C/[C@@H](F)COc2cccc(Cl)c2)[C@H](O)C[C@@H]1O` [Compound 63]: in test [1], the Emax stood at 84% and the EC50 was 2.2 nM. This compound showed an IC50 in test [2] of 238 nM.

Regarding `O=C(O)CCC/C=C\C[C@@H]1[C@@H](OC[C@@H](O)COc2cccc(Cl)c2)[C@H](O)C[C@@H]1O` [Compound 65], in test [1], the Emax is 91% and the EC50 turned out to be 57.8 nM. In test [2], this compound had an IC50 of 540 nM.
